In general, IC50 refers to the concentration that gives 50% inhibition.

Results on 27 molecules are retold here after patent publication US10793580B2, “Substituted pyrazoloazepin-8-ones and their use as phosphodiesterase inhibitors” (LEO Pharma A/S, priority 2016, dated 2020).

A value given as a limit tells only on which side of the number the result lay.

Chain of human PDE4D catalytic domain (Q08499 380-740): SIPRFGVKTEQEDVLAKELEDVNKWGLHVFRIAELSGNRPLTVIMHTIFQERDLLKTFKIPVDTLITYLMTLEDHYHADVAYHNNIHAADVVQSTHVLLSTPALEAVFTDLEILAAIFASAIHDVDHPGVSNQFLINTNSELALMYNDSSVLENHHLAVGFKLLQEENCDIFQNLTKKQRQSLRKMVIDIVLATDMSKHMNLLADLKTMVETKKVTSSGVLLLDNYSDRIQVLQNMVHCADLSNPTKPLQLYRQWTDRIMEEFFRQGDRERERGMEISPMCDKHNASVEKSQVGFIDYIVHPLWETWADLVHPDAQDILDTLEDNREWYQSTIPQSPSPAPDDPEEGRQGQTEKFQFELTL

The first test addresses human PDE4D catalytic domain (Homo sapiens (Human), UniProt Q08499). In words: PDE4 Assay (TR-FRET, FAM-cAMP cleavage). The test is classed as biochemical. The note with it: Table 16, Examples 277-296; read-out: PDE4 IC50 range. The method, then: The human PDE4D catalytic domain (UniProt no. Q08499 [S380-L740]) was incubated with a mixture of non-labelled cAMP (cyclic adenosine monophosphate) and fluorescein amidite (FAM) conjugated cAMP and titrated test or reference Compound. Following brief incubation the enzymatic reaction was stopped by addition of binding buffer containing nanoparticles with immobilized trivalent metal ions capable of binding 1) AMP phospho groups and 2) terbium (Tb) donor fluorophores. Subsequent excitation of the Tb donor triggers time-resolved FRET to adjacent FAM acceptor molecules resulting in light emission. In the presence of a PDE4 inhibitor, AMP generation was reduced resulting in a lower fluorescence signal. The cAMP phosphodiester is not bound by the detection system.
The results were calculated as the molar concentrations resulting in 50% inhibition of the substrate cleavage compared to controls samples, and are expressed as a range of IC50 (nM).
In general terms: TR-FRET usually uses a lanthanide donor and a delayed reading to cut background.
As to `CCn1nc(C[C@@H](C)COC(=O)c2cnsc2)c2c1C(=O)NCC1(CCOCC1)C2` [Example 284, [(2R)-3-(1-ethyl-8-oxo-spiro[6,7-dihydro-4H-pyrazolo[3,4-c]azepine-5,4′-tetrahydropyran]-3-yl)-2-methyl-propyl] isothiazole-4-carboxylate], the IC50 is below 100 nM.
On to `CCn1nc(C[C@@H](C)COC(=O)c2cncs2)c2c1C(=O)NCC1(CCOCC1)C2` [Example 286, [(2R)-3-(1-ethyl-8-oxo-spiro[6,7-dihydro-4H-pyrazolo[3,4-c]azepine-5,4′-tetrahydropyran]-3-yl)-2-methyl-propyl] thiazole-5-carboxylate], for which the IC50 is below 100 nM.
With `CCn1nc(C[C@@H](C)COC(=O)c2cc(C)nc(C)c2)c2c1C(=O)NCC1(CCOCC1)C2` [Example 293, [(2R)-3-(1-ethyl-8-oxo-spiro[6,7-dihydro-4H-pyrazolo[3,4-c]azepine-5,4′-tetrahydropyran]-3-yl)-2-methyl-propyl] 2,6-dimethylpyridine-4-carboxylate], the half-maximal inhibitory concentration (IC50) is below 100 nM.
Same read-out and setting: to `CCn1nc(C[C@@H](C)COC(=O)c2cocn2)c2c1C(=O)NCC1(CCOCC1)C2` [Example 277, [(2R)-3-(1-ethyl-8-oxo-spiro[6,7-dihydro-4H-pyrazolo[3,4-c]azepine-5,4′-tetrahydropyran]-3-yl)-2-methyl-propyl] oxazole-4-carboxylate] belongs below 100 nM.

The same test, now with this note: Table 17, Examples 297-316; read-out: PDE4 IC50 range.
With `CCn1nc(CC(C)(C)COC(=O)c2cnn(C)c2)c2c1C(=O)NCC1(CCOCC1)C2` [Example 299, [3-(1-ethyl-8-oxo-spiro[6,7-dihydro-4H-pyrazolo[3,4-c]azepine-5,4′-tetrahydropyran]-3-yl)-2,2-dimethyl-propyl] 1-methylpyrazole-4-carboxylate], the IC50 was below 100 nM.
The same measure, in the same setting: to `CCn1nc(CC(C)(C)COC(=O)C2CCN(C(C)=O)CC2)c2c1C(=O)NCC1(CCOCC1)C2` [Example 314, [3-(1-ethyl-8-oxo-spiro[6,7-dihydro-4H-pyrazolo[3,4-c]azepine-5,4′-tetrahydropyran]-3-yl)-2,2-dimethyl-propyl] 1-acetylpiperidine-4-carboxylate] belongs below 100 nM; to `CCn1nc(CC(C)(C)COC(=O)C2CCOCC2)c2c1C(=O)NCC1(CCOCC1)C2` [Example 307, [3-(1-ethyl-8-oxo-spiro[6,7-dihydro-4H-pyrazolo[3,4-c]azepine-5,4′-tetrahydro-pyran]-3-yl)-2,2-dimethyl-propyl] tetrahydropyran-4-carboxylate], below 100 nM; to `CCn1nc(CC(C)(C)COC(=O)c2cn(C)cn2)c2c1C(=O)NCC1(CCOCC1)C2` [Example 300, [3-(1-ethyl-8-oxo-spiro[6,7-dihydro-4H-pyrazolo[3,4-c]azepine-5,4′-tetrahydropyran]-3-yl)-2,2-dimethyl-propyl] 1-methylimidazole-4-carboxylate], below 100 nM.

The test is the same for the next values; noted with them: human PDE4D catalytic domain (UniProt Q08499 [S380-L740]); 50% inhibition of substrate cleavage; read-out: PDE4 IC50 range.
As to `CCn1nc(CC(C)(C)COC(=O)c2ccc(C(=O)N3CCCC3)cc2)c2c1C(=O)NCC1(CCOCC1)C2` [Example 221, [3-(1-ethyl-8-oxo-spiro[6,7-dihydro-4H-pyrazolo[3,4-c]azepine-5,4′-tetrahydro-pyran]-3-yl)-2,2-dimethyl-propyl] 4-(pyrrolidine-1-carbonyl)benzoate], the IC50 was below 100 nM.
Still for that read-out and setting: under `CCn1nc(CCCOC(=O)c2cc(C(F)(F)F)ccc2C)c2c1C(=O)NCC1(CCOCC1)C2` [Example 67, 3-(1-ethyl-8-oxo-spiro[6,7-dihydro-4H-pyrazolo[3,4-c]azepine-5,4′-tetrahydro-pyran]-3-yl)propyl 2-methyl-5-(trifluoromethyl)benzoate] stands below 100 nM; under `CCn1nc(CC(C)(C)COC(=O)c2ccc(S(=O)(=O)N(C)C)cc2)c2c1C(=O)NCC1(CCOCC1)C2` [Example 208, [3-(1-ethyl-8-oxo-spiro-[6,7-dihydro-4H-pyrazolo-[3,4-c]azepine-5,4′-tetra-hydropyran]-3-yl)-2,2-dimethyl-propyl] 4-(di-methylsulfamoyl)benzoate], below 100 nM; under `CCn1nc(C[C@@H](C)COC(=O)c2ccc(F)cc2)c2c1C(=O)NCC1(CCOCC1)C2` [Example 145, [(2R)-3-(1-ethyl-8-oxo-spiro[6,7-dihydro-4H-pyrazolo[3,4-c]azepine-5,4′-tetrahydropyran]-3-yl)-2-methyl-propyl] 4-fluorobenzoate], below 100 nM.
In the case of `CCn1nc(CCOC(=O)c2ccc(S(C)(=O)=O)cc2)c2c1C(=O)NCC1(CCOCC1)C2` [Example 136, 2-(1-ethyl-8-oxo-spiro-[6,7-dihydro-4H-pyrazolo-[3,4-c]azepine-5,4′-tetra-hydropyran]-3-yl)ethyl 4-methylsulfonylbenzoate], the IC50 was below 100 nM.
`CCn1nc(CCCCOC(=O)c2ccc(C(=O)N(C)C)cc2)c2c1C(=O)NCC1(CCOCC1)C2` [Example 129, 4-(1-ethyl-8-oxo-spiro[6,7-dihydro-4H-pyrazolo[3,4-c]azepine-5,4′-tetrahydropyran]-3-yl)butyl 4-(dimethyl-carbamoyl)benzoate]: the IC50 is below 100 nM.
Turning to `CCn1nc(CCCOC(=O)c2ccc(S(N)(=O)=O)cc2)c2c1C(=O)NCC1(CCOCC1)C2` [Example 65, 3-(1-ethyl-8-oxo-spiro[6,7-dihydro-4H-pyrazolo[3,4-c]azepine-5,4′-tetrahydropyran]-3-yl)propyl 4-sulfamoylbenzoate], the IC50 is below 100 nM.
The same measure, in the same setting: under `CCn1nc(CC(C)(C)COC(=O)c2ccc(S(=O)(=O)CC)cc2)c2c1C(=O)NCC1(CCOCC1)C2` [Example 203, [3-(1-ethyl-8-oxo-spiro[6,7-dihydro-4H-pyrazolo[3,4-c]azepine-5,4′-tetrahydropyran]-3-yl)-2,2-dimethyl-propyl] 4-ethylsulfonylbenzoate] stands below 100 nM; under `CCn1nc(CCCOC(=O)c2cccc(C(=O)N(C)C)c2)c2c1C(=O)NCC1(CCOCC1)C2` [Example 115, 3-(1-ethyl-8-oxo-spiro[6,7-dihydro-4H-pyrazolo[3,4-c]azepine-5,4′-tetrahydropyran]-3-yl)propyl 3-(dimethyl-carbamoyl)benzoate], below 100 nM.
As to `CCn1nc(CC(C)(C)COC(=O)c2ccc(F)cc2)c2c1C(=O)NCC1(CCOCC1)C2` [Example 192, [3-(1-ethyl-8-oxo-spiro[6,7-dihydro-4H-pyrazolo[3,4-c]azepine-5,4′-tetrahydropyran]-3-yl)-2,2-dimethyl-propyl] 4-fluorobenzoate], the IC50 was below 100 nM.
With `CCn1nc(C[C@@H](C)COC(=O)c2cccc(OC)c2)c2c1C(=O)NCC1(CCOCC1)C2` [Example 150, [(2R)-3-(1-ethyl-8-oxo-spiro[6,7-dihydro-4H-pyrazolo[3,4-c]azepine-5,4′-tetrahydropyran]-3-yl)-2-methyl-propyl] 3-methoxybenzoate], the IC50 was below 100 nM.
Consider `CCn1nc(CCCOC(=O)c2ccc(S(=O)(=O)N3CCCC3)cc2)c2c1C(=O)NCC1(CCOCC1)C2` [Example 96, 3-(1-ethyl-8-oxo-spiro[6,7-dihydro-4H-pyrazolo[3,4-c]azepine-5,4′-tetrahydro-pyran]-3-yl)propyl 4-pyrro-lidin-1-ylsulfonylbenzoate], for which the half-inhibitory concentration (IC50) is below 100 nM.
In the case of `CCn1nc(CCCOC(=O)c2cnc(C)o2)c2c1C(=O)NCC1(CCOCC1)C2` [Example 241, 3-(1-ethyl-8-oxo-spiro[6,7-dihydro-4H-pyrazolo[3,4-c]azepine-5,4′-tetrahydropyran]-3-yl)propyl 2-methyloxazole-5-carboxylate], the half-maximal inhibitory concentration (IC50) was below 100 nM.
Take `CCn1nc(C[C@@H](C)COC(=O)c2ccccc2F)c2c1C(=O)NCC1(CCOCC1)C2` [Example 144, [(2R)-3-(1-ethyl-8-oxo-spiro[6,7-dihydro-4H-pyrazolo[3,4-c]azepine-5,4′-tetrahydropyran]-3-yl)-2-methyl-propyl] 2-fluorobenzoate]: the IC50 is below 100 nM.
Regarding `CCn1nc(CC(C)(C)COC(=O)c2cccc(S(=O)(=O)C(C)C)c2)c2c1C(=O)NCC1(CCOCC1)C2` [Example 206, [3-(1-ethyl-8-oxo-spiro[6,7-dihydro-4H-pyrazolo[3,4-c]azepine-5,4′-tetrahydropyran]-3-yl)-2,2-dimethyl-propyl] 3-isopropylsulfonylbenzoate], the 50% inhibitory concentration (IC50) was below 100 nM.
For `CCn1nc(CCCOC(=O)c2ccc(C(C)=O)cc2)c2c1C(=O)NCC1(CCOCC1)C2` [Example 27, 3-(1-ethyl-8-oxo-spiro[6,7-dihydro-4H-pyrazolo[3,4-c]azepine-5,4′-tetrahydropyran]-3-yl)propyl 4-acetylbenzoate], the IC50 is below 100 nM.
Still for that read-out and setting: to `CCn1nc(CCCOC(=O)c2cc(C(F)(F)F)ccc2Cl)c2c1C(=O)NCC1(CCOCC1)C2` [Example 91, 3-(1-ethyl-8-oxo-spiro[6,7-dihydro-4H-pyrazolo[3,4-c]azepine-5,4′-tetrahydro-pyran]-3-yl)propyl 2-chloro-5-(trifluoromethyl)benzoate] belongs below 100 nM; to `CCn1nc(CCCOC(=O)C(C)C)c2c1C(=O)NCC1(CCOCC1)C2` [Example 4, 3-(1-ethyl-8-oxo-spiro[6,7-dihydro-4H-pyrazolo[3,4-c]azepine-5,4′-tetrahydropyran]-3-yl)propyl 2-methylpropanoate], below 100 nM; to `CCn1nc(CCCOC(=O)c2ccc(C(=O)N3CCCC3)cc2)c2c1C(=O)NCC1(CCOCC1)C2` [Example 107, 3-(1-ethyl-8-oxo-spiro[6,7-dihydro-4H-pyrazolo[3,4-c]azepine-5,4′-tetrahydro-pyran]-3-yl)propyl 4-(pyrrolidine-1-carbonyl)benzoate], below 100 nM.
